“And” between values parts separate entries of the source, which are not always exact repeats. Equal entries are not always repeated.

Test [1] deals with HeLa. In words: Percent inhibition of growth of human cervical carcinoma (HeLa) cells in culture at 5 micro g/mL of the compound. It is filed as functional.
The test system of test [2] is HeLa. In words: Percent inhibition of growth of human cervical carcinoma (HeLa) cells in culture at 25 micro g/mL of the compound. It is filed as functional.
Test [3] has as its system HeLa. Put plainly: Percent inhibition of growth of human cervical carcinoma (HeLa) cells in culture at 50 micro g/mL of the compound. It is filed as functional.
A short description of test [4]: Inhibition against cytidine diphosphate reductase activity in calf thymus. It is filed as tissue-based, Bos taurus.
For test [5], the system named is HeLa. In words: Percent inhibition of growth of human cervical carcinoma (HeLa) cells in culture at 2.5 micro g/mL of the compound. It is filed as functional.
Test [6] relates to HeLa. Put plainly: Percent inhibition of growth of human cervical carcinoma (HeLa) cells in culture at 10 micro g/mL of the compound. It is filed as functional.
The subject of test [7] is HeLa. In words: Percent inhibition of growth of human cervical carcinoma (HeLa) cells in culture at 200 micro g/mL of the compound. It is filed as functional.
For test [8], the system named is HeLa. In words: Percent inhibition of growth of human cervical carcinoma (HeLa) cells in culture at 100 micro g/mL of the compound. It is filed as functional.
Test [9] concerns HeLa. In words: Percent inhibition of growth of human cervical carcinoma (HeLa) cells in culture at 1 micro g/mL of the compound. It is filed as functional.
Test [10] concerns HeLa. In words: Percent inhibition of growth of human cervical carcinoma (HeLa) cells in culture at 0.1 micro g/mL of the compound. It is filed as functional.

For `O=C(NO)C(OCCO)n1cc(F)c(=O)[nH]c1=O` (centres undefined), the Inhibition is reported as 40% in [1]; 75% in [2]; 80% in test [3]; 16.5% in [5]; 66% in test [6]. Moreover, in test [4], the 50% inhibitory concentration (IC50) was determined as 1400 µM.

Regarding `O=C(NO)C(OCCO)n1ccc(=O)[nH]c1=O` (centres undefined), the Inhibition in [7] was 97%; in test [2], 19%; in [3], 13%; in test [8] it was 47%. In test [4], this compound showed an IC50 of 2200 µM.

Compound `Nc1ccn(C(OCCO)C(=O)NO)c(=O)n1` (centres undefined) gave an Inhibition in [7] of 0%. This compound showed an IC50 in [4] of 4900 µM.

Take `O=c1[nH]cc(F)c(=O)[nH]1` [FLUOROURACIL]: the Inhibition in test [1] was 34.3%; in [2], 77%; in test [3], 90%; in test [9], 55%; in [10] it was 19%; in [6] it was 63.5% and 70%.

Regarding `NC(=O)NO` [HYDROXYUREA], the Inhibition in test [1] is 34.3%; in [2] it was 77%; in test [3], 90%; in [6], 63.5%. The half-inhibitory concentration (IC50) in test [4] was determined as 500 µM.

For the origin of these results see ChEMBL document CHEMBL1124561, “Synthesis of acyclonucleoside hydroxamic acids as inhibitors of ribonucleotide reductase” (J Med Chem, 1989).
